# Assay results as given in paper PMC5931576, “Allosteric modulation of the farnesoid X receptor by a small molecule” (Scientific Reports, 2018).
# Key:
# [1] = system: kinases that interact with FXR; assay: Kinase inhibition profile, kinases that interact with FXR; assay type: biochemical
# Abl = assay: Kinase inhibition assay (radiometric or HTRF); assay type: biochemical
# FXR-LBD = assay: Thermal shift assay (SYPRO Orange); assay type: binding; conditions: compound 100 µM alone, 5 µM FXR-LBD; mean ± SEM, n ≥ 4
# Protocol: Thermal shift experiments were performed in clear 96-well plates (Invitrogen) using SYPRO Orange (Invitrogen) as dye as described previously[38]. 10 μL of test compound (final concentrations: 3: 100 µM; 16: 100 µM) in assay buffer (10 mM TRIS (pH 8.3), 5 mM DTT, 0.5 mM EDTA, 100 mM NaCl) were mixed with 10 μL of FXR-LBD (final protein concentration 5 µM) in assay buffer and 5 µL of SYPRO Orange (5 × final concentration). Temperature-dependent fluorescence increase reporting protein denaturation was measured in duplicates in an ICycler (Bio-Rad Laboratories, Hercules, CA, USA) from 20 to 90 °C in steps of 0.5 °C per minute at 300 nm excitation and 570 nm emission wavelength. The first derivative of the melting curve was calculated using the Graph Pad Prism 5 software. All curves were determined at least four times in independent experiments.
# human FXR = biological target: T1, human FXR (Homo sapiens, UniProt Q96RI1); assay: Full-length FXR transactivation (reporter gene) assay in HeLa cells; assay type: cell-based
# T1 construct: expressed in transfected cells; host or cells: HeLa
# T1 sequence (Q96RI1 1-486): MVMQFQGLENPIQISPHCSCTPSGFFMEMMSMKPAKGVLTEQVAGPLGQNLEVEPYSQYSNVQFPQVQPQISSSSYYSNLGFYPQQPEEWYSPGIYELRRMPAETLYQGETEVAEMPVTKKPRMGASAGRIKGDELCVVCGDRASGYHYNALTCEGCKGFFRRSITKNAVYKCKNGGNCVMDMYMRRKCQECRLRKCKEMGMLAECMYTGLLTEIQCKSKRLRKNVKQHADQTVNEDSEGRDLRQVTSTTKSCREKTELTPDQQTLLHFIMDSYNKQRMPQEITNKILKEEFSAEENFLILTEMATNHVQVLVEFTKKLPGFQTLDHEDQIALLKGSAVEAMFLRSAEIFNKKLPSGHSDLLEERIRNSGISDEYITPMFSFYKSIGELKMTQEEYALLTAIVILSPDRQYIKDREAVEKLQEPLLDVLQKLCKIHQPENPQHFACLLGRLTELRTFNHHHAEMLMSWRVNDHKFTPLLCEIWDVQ
# T1 sequence (P19793 1-462 partner): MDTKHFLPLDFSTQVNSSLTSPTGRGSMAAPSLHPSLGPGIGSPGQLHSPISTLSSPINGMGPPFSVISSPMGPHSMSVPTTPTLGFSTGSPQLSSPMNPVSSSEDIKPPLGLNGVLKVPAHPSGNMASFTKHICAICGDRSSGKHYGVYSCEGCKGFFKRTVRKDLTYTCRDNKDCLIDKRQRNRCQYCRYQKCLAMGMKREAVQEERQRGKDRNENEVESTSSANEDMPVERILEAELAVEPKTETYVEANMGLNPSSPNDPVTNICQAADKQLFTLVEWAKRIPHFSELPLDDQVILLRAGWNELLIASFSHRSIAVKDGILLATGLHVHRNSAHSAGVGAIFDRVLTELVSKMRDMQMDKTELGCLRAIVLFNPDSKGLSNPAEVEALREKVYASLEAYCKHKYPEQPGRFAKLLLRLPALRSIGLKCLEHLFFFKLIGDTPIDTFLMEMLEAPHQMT
# c-Kit = assay: Kinase inhibition assay (radiometric or HTRF); assay type: biochemical
# TGR5 = system: T2, TGR5; assay: TGR5 assay (Eurofins); assay type: cell-based; conditions: 1 and 10 µM
# T2 construct: Eurofins (Brussels, Belgium)
# RXRα = system: T3, RXRα; assay: Gal4-DBD-RXRα-LBD hybrid reporter gene assay; assay type: cell-based, human
# T3 construct: expressed in transfected cells; host or cells: HEK293T
# Source text: The Gal4-fusion receptor plasmids pFA-CMV-hPPARα-LBD[34], pFA-CMV-hPPARγ-LBD[34], pFA-CMV-hPPARδ-LBD[34], pFA-CMV-hLXRα-LBD[35], pFA-CMV-hLXRβ-LBD[35], pFA-CMV-hRXRα-LBD[36], pFA-CMV-hRXRβ-LBD[36], pFA-CMV-hRXRγ-LBD[36], pFA-CMV-hRARα-LBD[36], pFA-CMV-hRARβ-LBD[36], pFA-CMV-hRARγ-LBD[36], pFA-CMV-hVDR-LBD[36] and pFA-CMV-hCAR-LBD[36] coding for the hinge region and ligand binding domain (LBD) of the canonical isoform of the respective nuclear receptor have been reported previously. pFR-Luc (Stratagene) was used as reporter plasmid and pRL-SV40 (Promega) for normalization of transfection efficiency and cell growth.
# HEK293T cells were grown in DMEM high glucose, supplemented with 10% FCS, sodium pyruvate (1 mM), penicillin (100 U/mL) and streptomycin (100 μg/mL) at 37 °C and 5% CO2. The day before transfection, HEK293T cells were seeded in 96-well plates (2.5·10^4 cells/well). Before transfection, medium was changed to Opti-MEM without supplements. Transient transfection was carried out using Lipofectamine LTX reagent (Invitrogen) according to the manufacturer’s protocol with pFR-Luc (Stratagene), pRL-SV40 (Promega) and pFA-CMV-hNR-LBD. […] Luminescence was measured with an Infinite M200 luminometer (Tecan Deutschland GmbH) or a Tecan Spark 10 M luminometer (Tecan). […]
smiles,measurement,setting,value
"CS(=O)(=O)O.CS(=O)(=O)O.CS(=O)(=O)O.CS(=O)(=O)O.Cc1ccc(NC(=O)c2ccc(Cl)cc2)cc1Nc1nccc(-c2cccnc2)n1.Cc1ccc(NC(=O)c2ccc(Cl)cc2)cc1Nc1nccc(-c2cccnc2)n1.O.O.O [compound 16, 4-Chloro-N-(4-methyl-3-(4-(pyridin-3-yl)pyrimidin-2-ylamino)phenyl)benzamide dimesylate-sesquihydrate]",Inhibition of kinases that interact with FXR,[1],does not markedly inhibit
same,Inhibition of Abl,Abl,potent inhibitor
same,Thermal shift of FXR-LBD melting point,FXR-LBD,−1.0 ± 0.0 °C
same,Effect on transactivation efficacy of FXR agonists 1–3,human FXR; 16 at 10 µM,significantly enhances
same,Emax,"human FXR; HeLa, read-out: hFXR: max. rel. act.",8.4%
same,EC50,"human FXR; full-length reporter gene assay, HeLa cells, mean ± SEM, n ≥ 3, read-out: hFXR: EC50",1.9 ± 0.6 nM
same,Effect on EC50-value of 1,human FXR; in presence of 0.1 µM 16,not affected
same,Increase of maximum relative activation of 1,human FXR; in presence of 0.1 µM 16,about 50%
same,Inhibition of c-Kit,c-Kit,potent inhibitor
same,TGR5 modulation (agonistic or antagonistic activity),TGR5,does not modulate
same,RXR agonistic activity (activation of RXRα-Gal4 chimera receptor),RXRα,did not activate
